The text below walks through data of patent US20240124427A1, “HYDROXYHETEROCYCLOALKANE-CARBAMOYL DERIVATIVES” (Idorsia Pharmaceuticals Ltd, priority 2021, published 2024).

Chain of human Gal-3 (hGal-3) (P17931 whole entry): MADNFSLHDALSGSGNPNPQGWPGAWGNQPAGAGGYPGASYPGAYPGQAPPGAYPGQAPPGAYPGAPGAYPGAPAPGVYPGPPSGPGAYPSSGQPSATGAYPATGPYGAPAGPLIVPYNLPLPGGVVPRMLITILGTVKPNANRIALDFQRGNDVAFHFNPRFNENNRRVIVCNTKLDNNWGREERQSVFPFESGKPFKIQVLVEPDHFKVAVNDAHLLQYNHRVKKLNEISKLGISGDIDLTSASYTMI

This assay deals with human Gal-3 (hGal-3) (Homo sapiens (Human), UniProt P17931). Briefly: Competitive binding assay: biotinylated hGal-3 binding to microplate-adsorbed asialofetuin (ASF). The conditions noted are these: Activity on hGal-3; mean values of several measurements; mixture of diastereomers measured where not separated. As for the experimental part:
The inhibitory activity of compounds is determined in competitive binding assays. This spectrophotometric assay measures the binding of biotinylated human Gal-3 (hGal-3) or human Gal-1 (hGal-1), respectively, to a microplate-adsorbed glycoprotein, asialofetuin (ASF) (Proc Natl Acad Sci USA. 2013 Mar 26;110(13):5052-7.). Alternatively, and preferably, a human Gal-1 version in which all six cysteines are substituted by serines may be used.
Briefly, compounds are serially diluted in DMSO (working dilutions).
Plates are incubated for 3 hours at 4° C., then washed with cold assay buffer (3×50 uL), incubated for 1 hour with 25 μL/well of a streptavidin-peroxidase solution (diluted in assay buffer to 80 ng/mL) at 4° C., followed by further washing steps with assay buffer (3×50 uL). Finally, 25 μL/well of ABTS substrate is added.
The calculated IC50 values may fluctuate depending on the daily assay performance. Fluctuations of this kind are known to those skilled in the art. IC50 values from several measurements are given as mean values.
As to `CO[C@@H]1[C@@H](n2cc(-c3ccc(Cl)c(Cl)c3)nn2)[C@@H](O)[C@@H](CO)O[C@H]1C(=O)N(c1cc(Cl)cc(Cl)c1)[C@H]1COC[C@@H]1O` [Example 26, (2R,3R,4S,5R,6R)-N-(3,5-dichlorophenyl)-4-(4-(3,4-dichlorophenyl)-1H-1,2,3-triazol-1-yl)-5-hydroxy-6-(hydroxymethyl)-N-((3S,4R)-4-hydroxytetrahydrofuran-3-yl)-3-methoxytetrahydro-2H-pyran-2-carboxamide], the IC50 is 162 nM.
As for `CO[C@@H]1[C@@H](n2cc(-c3ccc(Cl)c(Cl)c3)nn2)[C@@H](O)[C@@H](CO)O[C@H]1C(=O)N(c1cc(Cl)cc(Cl)c1)[C@H]1CNC[C@@H]1O` [Example 65, (2R,3R,4S,5R,6R)-N-(3,5-dichlorophenyl)-4-(4-(3,4-dichlorophenyl)-1H-1,2,3-triazol-1-yl)-5-hydroxy-6-(hydroxymethyl)-N-((3S,4S)-4-hydroxypyrrolidin-3-yl)-3-methoxytetrahydro-2H-pyran-2-carboxamide], the figure is 54 nM; as for `CO[C@@H]1[C@@H](n2cc(-c3cc(F)c(C)c(F)c3)nn2)[C@@H](O)[C@@H](CO)O[C@H]1C(=O)N(c1cc(Br)cc(C#N)c1)[C@H]1COC[C@@H]1O` [Example 17, (2R,3R,4S,5R,6R)-N-(3-bromo-5-cyanophenyl)-4-(4-(3,5-difluoro-4-methylphenyl)-1H-1,2,3-triazol-1-yl)-5-hydroxy-6-(hydroxymethyl)-N-((3S,4R)-4-hydroxytetrahydrofuran-3-yl)-3-methoxytetrahydro-2H-pyran-2-carboxamide], 66 nM; as for `CO[C@@H]1[C@@H](n2cc(-c3cc(F)c(F)c(F)c3)nn2)[C@@H](O)[C@@H](CO)O[C@H]1C(=O)N(c1cc(C)cc(C#N)c1)[C@H]1COC[C@@H]1O` [Example 10, (2R,3R,4S,5R,6R)-N-(3-cyano-5-methylphenyl)-5-hydroxy-6-(hydroxymethyl)-N-((3S,4R)-4-hydroxytetrahydrofuran-3-yl)-3-methoxy-4-(4-(3,4,5-trifluorophenyl)-1H-1,2,3-triazol-1-yl)tetrahydro-2H-pyran-2-carboxamide], 136 nM.
As for `CO[C@@H]1[C@@H](n2cc(-c3ccc(Br)c(F)c3F)nn2)[C@@H](O)[C@@H](CO)O[C@H]1C(=O)N(c1cc(C)cc(Br)c1)[C@@H]1COC[C@H]1O` [Example 43, (2R,3R,4S,5R,6R)-4-(4-(4-bromo-2,3-difluorophenyl)-1H-1,2,3-triazol-1-yl)-N-(3-bromo-5-methylphenyl)-5-hydroxy-6-(hydroxymethyl)-N-((3R,4S)-4-hydroxytetrahydrofuran-3-yl)-3-methoxytetrahydro-2H-pyran-2-carboxamide], the IC50 turned out to be 33 nM.
The result for `CO[C@@H]1[C@@H](n2cc(-c3cc(F)c(C)c(F)c3)nn2)[C@@H](O)[C@@H](CO)O[C@H]1C(=O)N(c1cc(C)cc(Br)c1)[C@@H]1COC[C@H]1O` [Example 47, (2R,3R,4S,5R,6R)-N-(3-bromo-5-methylphenyl)-4-(4-(3,5-difluoro-4-methylphenyl)-1H-1,2,3-triazol-1-yl)-5-hydroxy-6-(hydroxymethyl)-N-((3R,4S)-4-hydroxytetrahydrofuran-3-yl)-3-methoxytetrahydro-2H-pyran-2-carboxamide] reads 72 nM.
Turning to `CO[C@@H]1[C@@H](n2cc(-c3ccc(Br)c(F)c3F)nn2)[C@@H](O)[C@@H](CO)O[C@H]1C(=O)N(c1cc(C)cc(Br)c1)[C@H]1COC[C@@H]1O` [Example 14, (2R,3R,4S,5R,6R)-4-(4-(4-bromo-2,3-difluorophenyl)-1H-1,2,3-triazol-1-yl)-N-(3-bromo-5-methylphenyl)-5-hydroxy-6-(hydroxymethyl)-N-((3S,4R)-4-hydroxytetrahydrofuran-3-yl)-3-methoxytetrahydro-2H-pyran-2-carboxamide], the IC50 stood at 46 nM.
For `CO[C@@H]1[C@@H](n2cc(-c3ccc(C)c(F)c3F)nn2)[C@@H](O)[C@@H](CO)O[C@H]1C(=O)N(c1cc(C)cc(Br)c1)[C@H]1CN(C=O)C[C@@H]1O` [Example 92, (2R,3R,4S,5R,6R)-N-(3-bromo-5-methylphenyl)-4-(4-(2,3-difluoro-4-methylphenyl)-1H-1,2,3-triazol-1-yl)-N-((3S,4S)-1-formyl-4-hydroxypyrrolidin-3-yl)-5-hydroxy-6-(hydroxymethyl)-3-methoxytetrahydro-2H-pyran-2-carboxamide], the IC50 turned out to be 19 nM.
The result for `CO[C@@H]1[C@@H](n2cc(-c3cc(F)c(F)c(F)c3)nn2)[C@@H](O)[C@@H](CO)O[C@H]1C(=O)N(c1cc(C)cc(Br)c1)[C@H]1CNCC[C@@H]1O` [Example 114, (2R,3R,4S,5R,6R)-N-(3-bromo-5-methylphenyl)-5-hydroxy-6-(hydroxymethyl)-N-((3S,4S)-4-hydroxypiperidin-3-yl)-3-methoxy-4-(4-(3,4,5-trifluorophenyl)-1H-1,2,3-triazol-1-yl)tetrahydro-2H-pyran-2-carboxamide] reads 9 nM.
The result for `CO[C@@H]1[C@@H](n2cc(-c3cc(F)c(Cl)c(F)c3)nn2)[C@@H](O)[C@@H](CO)O[C@H]1C(=O)N(c1cc(Br)cc(Br)c1)[C@H]1COC[C@@H]1O` [Example 23, (2R,3R,4S,5R,6R)-4-(4-(4-chloro-3,5-difluorophenyl)-1H-1,2,3-triazol-1-yl)-N-(3,5-dibromophenyl)-5-hydroxy-6-(hydroxymethyl)-N-((3S,4R)-4-hydroxytetrahydrofuran-3-yl)-3-methoxytetrahydro-2H-pyran-2-carboxamide] reads 55 nM; that for `CO[C@@H]1[C@@H](n2cc(-c3cc(F)c(F)c(F)c3)nn2)[C@@H](O)[C@@H](CO)O[C@H]1C(=O)N(c1cc(C)cc(Br)c1)[C@@H]1CNC[C@H]1O` [Example 68, (2R,3R,4S,5R,6R)-N-(3-bromo-5-methylphenyl)-5-hydroxy-6-(hydroxymethyl)-N-((3R,4R)-4-hydroxypyrrolidin-3-yl)-3-methoxy-4-(4-(3,4,5-trifluorophenyl)-1H-1,2,3-triazol-1-yl)tetrahydro-2H-pyran-2-carboxamide], 222 nM.
The result for `COc1cc(C#N)cc(N(C(=O)[C@@H]2O[C@H](CO)[C@H](O)[C@H](n3cc(-c4cc(F)c(F)c(F)c4)nn3)[C@H]2OC)[C@@H]2COC[C@H]2O)c1` [Example 38, (2R,3R,4S,5R,6R)-N-(3-cyano-5-methoxyphenyl)-5-hydroxy-6-(hydroxymethyl)-N-((3R,4S)-4-hydroxytetrahydrofuran-3-yl)-3-methoxy-4-(4-(3,4,5-trifluorophenyl)-1H-1,2,3-triazol-1-yl)tetrahydro-2H-pyran-2-carboxamide] reads 113 nM; that for `CO[C@@H]1[C@@H](n2cc(-c3cc(F)c(Cl)c(F)c3)nn2)[C@@H](O)[C@@H](CO)O[C@H]1C(=O)N(c1cc(Br)cc(Br)c1)[C@@H]1COC[C@H]1O` [Example 52, (2R,3R,4S,5R,6R)-4-(4-(4-chloro-3,5-difluorophenyl)-1H-1,2,3-triazol-1-yl)-N-(3,5-dibromophenyl)-5-hydroxy-6-(hydroxymethyl)-N-((3R,4S)-4-hydroxytetrahydrofuran-3-yl)-3-methoxytetrahydro-2H-pyran-2-carboxamide], 86 nM.
